From patent US20210330611A1, “THERAPY FOR NEUROLOGICAL DISEASES/DISORDERS” (priority 2020, published 2021) come the findings set out here.

For data set [1], the system named is fibrin- and LPS-induced microglia activation. Nature of the data set: cells. It is filed as cell-based, rat. As to conditions: for inhibition at 10 µM: Rattus norvegicus; for Activity: Table 7, fib = fibrin, LPS, tox = toxicity.
Data set [2] in a line: in vitro. As to conditions: rat, Cell Toxicity IC50 (uM) [cFib assay].
Data set [3] has as its system primary rat microglia. To be noted: rat.
For data set [4], the system named is fibrin-induced microglia activation. The data set can be described thus: Image-based assay of fibrin-induced microglia activation (HTS and dose response). The format is cell-based, rat. As to conditions: for IC50 / inhibition at 10 µM: Rattus norvegicus, Microglia; for inhibition at 10 µM: read-out: Fibrin % inhibition.
Data set [5] can be described thus: in vitro. As to conditions: rat.
Data set [6] relates to primary rat microglia. As to conditions: rat. This is another data set of the same source.
The subject of data set [7] is LPS-induced microglia activation. Nature of the data set: Image-based assay of LPS-induced microglia activation (HTS and dose response). The format is cell-based, rat. As to conditions: Rattus norvegicus, Microglia; for inhibition at 10 µM: read-out: LPS % inhibition.
Data set [8] concerns primary rat microglia. Nature of the data set: Cell toxicity (dead cells, size <150 μm2) in LPS assay. To be noted: read-out: Cell Toxicity IC50 (uM) [LPS assay]; LPS assay.
Setting [9] is: HTS of 1907 compounds, quadrant by fibrin and LPS inhibition.
Where [10] appears, read: Microglia, Table 3, read-out: Cherry-picked Hit (Suppl. Table 7).
Where [11] appears, read: Microglia, HTS hit classification, read-out: Hit.
[12] abbreviates: quadrant by fibrin and LPS inhibition in HTS of 1907 compounds.
Setting [13] is: 48 h, Table 1, dose response 0.001-20 μM, triplicates, primary rat microglia, 48 h, read-out: Fibrin IC50.
Setting [14] is: Table 3, read-out: Fibrin IC50 (uM) (Suppl. Table 7).
Where [15] appears, read: dose response, fibrin-induced microglia activation, read-out: Fibrin IC50.
Setting [16] is: fibrin-induced microglia activation, dose response, read-out: Fibrin IC50 (uM) (Suppl. Table 7).
Where [17] appears, read: primary microglia HTS, fibrin stimulation, increased cell size (>800 μm^2) as marker of activation.
Where [18] appears, read: 48 h, Table 1, dose response 0.001-20 μM, triplicates, primary rat microglia, 48 h, read-out: LPS IC50.
Where [19] appears, read: 48 h, primary microglia HTS, LPS stimulation, increased cell size (>800 μm^2) as marker of activation.
Setting [20] is: LPS-induced microglia activation, dose response, read-out: LPS IC50 (uM) (Suppl. Table 7).
The mark [21] stands for this setting: Table 3, read-out: LPS IC50 (uM) (Suppl. Table 7).
The mark [22] stands for this setting: dose response, LPS-induced microglia activation, read-out: LPS IC50.
Setting [23] is: hit classification in microglia HTS, read-out: Cherry-picked Hit (Suppl. Table 7).

Counter-ions that a name gives are not always drawn. Like-named read-outs stand apart in the source and are kept apart here.
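For Fibrin % cell toxicity in this document: share of dead cells sized under 150 µm2 at 10 µM in fibrin-stimulated microglia HTS.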

For the compound `O=c1[nH]cc(F)c(=O)[nH]1` [Fluorouracil, reference compound], the “Quadrant (FIG. 5b)” value in data set [1] (setting [9]) is reported as “Q3”; in data set [1] (Table 1, screen at 10 μM) it was “Q3”; in data set [1] (Table 3, screen at 10 μM), “Q3”; in data set [1] (setting [12]), “Q3”. In addition, the inhibition at 10 µM was greater than 50% in data set [1] (setting [10]), greater than 50% in data set [1] (setting [11]), 56% in data set [4] (setting [17]) and 40% in data set [7] (setting [19]). Also, the IC50 was greater than 20 µM in “in vitro [2]” (Table 3); greater than 20 µM in “in vitro [2]” (cFib assay); 7 µM in data set [4] (setting [13]); 7 µM in data set [4] (setting [14]); 7 µM in data set [4] (setting [15]); 7 µM in data set [4] (setting [16]). For the same compound, the IC50 (in the data set “in vitro [5]”; in data set [7] (setting [18]); in data set [7] (setting [20]); in data set [7] (setting [21]); in data set [7] (setting [22]); with primary rat microglia [8]) was greater than 20 µM each time. Moreover, in the data set with primary rat microglia [3], the “LPS % cell toxicity” value is 1%. Further, in data set [4], the “Fibrin Selectivity” value is 3. In addition, the “Fibrin Selectivity (LOG10)” value in data set [4] is recorded as 0.44. Moreover, the “Fibrin % cell toxicity” value in the data set on primary rat microglia [6] is 1%.

Regarding `CC(=O)O[C@]1(C(C)=O)CC[C@H]2[C@@H]3C=C(C)C4=CC(=O)CC[C@]4(C)[C@H]3CC[C@@]21C` [Megestrol acetate, reference compound], the “Quadrant (FIG. 5b)” value in data set [1] (setting [9]) is given as “Q3”; in data set [1] (Table 1, screen at 10 μM) it was “Q3”; in data set [1] (Table 3, screen at 10 μM), “Q3”. The inhibition at 10 µM was greater than 50% in data set [1] (setting [10]), greater than 50% in data set [1] (setting [11]) and 24% in data set [7] (setting [19]). Besides, the IC50 in “in vitro [2]” (Table 3) is greater than 20 µM; in “in vitro [2]” (cFib assay), greater than 20 µM; in data set [4] (setting [13]), 5 µM; in data set [4] (setting [14]), 5 µM; in data set [4] (setting [15]) it was 5 µM; in data set [4] (setting [16]) it was 5 µM. Moreover, the IC50 (in the data set “in vitro [5]”; in data set [7] (setting [18]); in data set [7] (setting [20]); in data set [7] (setting [21]); in data set [7] (setting [22]); in the data set on primary rat microglia [8]) was greater than 20 µM throughout. Moreover, the “Fibrin Selectivity” value in data set [4] came out at 4. Besides, the “Fibrin Selectivity (LOG10)” value in data set [4] is 0.63. Besides, the “Fibrin % cell toxicity” value with primary rat microglia [6] is 1%.

Consider `CO[C@H]1C[C@H](O[C@@H]2/C(C)=C/C[C@@H]3C[C@@H](C[C@]4(CC[C@H](C)[C@@H](C5CCCCC5)O4)O3)OC(=O)[C@@H]3C=C(C)/C(=N/O)[C@H]4OC/C(=C\C=C\[C@@H]2C)[C@]43O)O[C@@H](C)[C@@H]1O` [Selamectin, reference compound], for which the “Quadrant (FIG. 5b)” value in data set [1] is given as “Q3”. For the same compound, the inhibition at 10 µM in data set [1] (Microglia, read-out: Cherry-picked Hit (Suppl. Table 7)) was greater than 50%; in data set [1] (Microglia, read-out: Hit), greater than 50%; in data set [4] it was 51%; in data set [7] (48 h), 42%. The IC50 was greater than 20 µM in “in vitro [2]”; 6 µM in data set [4] (48 h, read-out: Fibrin IC50); 6 µM in data set [4] (read-out: Fibrin IC50 (uM)); 6 µM in data set [4] (read-out: Fibrin IC50 (uM) (Suppl. Table 7)); greater than 20 µM in “in vitro [5]”; greater than 20 µM in data set [7] (48 h, read-out: LPS IC50). Also, the IC50 in data set [7] (read-out: LPS IC50 (uM)) and in data set [7] (read-out: LPS IC50 (uM) (Suppl. Table 7)) was greater than 20 µM in each case. The “LPS % cell toxicity” value in the data set with primary rat microglia [3] is listed as 1%. Further, the “Fibrin Selectivity” value in data set [4] came out at 3. Moreover, in data set [4], the “Fibrin Selectivity (LOG10)” value was 0.51. The “Fibrin % cell toxicity” value in the data set on primary rat microglia [6] worked out at 1%.

With `COc1cc([C@@H]2c3cc4c(cc3[C@@H](O[C@@H]3O[C@@H]5CO[C@@H](c6cccs6)O[C@H]5[C@H](O)[C@H]3O)[C@H]3COC(=O)[C@H]23)OCO4)cc(OC)c1O` [Teniposide, reference compound], the “Quadrant (FIG. 5b)” value is reported as “Q2” in data set [1] (setting [9]); “Q2” in data set [1] (Table 1, screen at 10 μM); “Q2” in data set [1] (Table 2, screen at 10 μM); “Q2” in data set [1] (setting [12]). Moreover, the inhibition at 10 µM in data set [1] (setting [11]) was greater than 50%; in data set [1] (setting [23]), greater than 50%; in data set [4] (setting [17]) it was 91%; in data set [7] (setting [19]), 100%. Also, the Activity entry in data set [1] is on record as “fib/LPS”. Besides, the IC50 amounted to 20 µM in “in vitro [2]” (cFib assay); 2 µM in data set [4] (setting [13]); 0.821 µM in data set [4] (Table 7, read-out: fib_IC50); 2 µM in data set [4] (setting [15]); 2 µM in data set [4] (setting [16]); 4 µM in the data set “in vitro [5]”. Besides, the IC50 came to 1 µM in data set [7] (setting [18]); 1 µM in data set [7] (setting [20]); 0.24 µM in data set [7] (Table 7, read-out: LPS_IC50); 1 µM in data set [7] (setting [22]). Further, the “LPS % cell toxicity” value with primary rat microglia [3] is given as 18%. Also, the “Fibrin % cell toxicity” value in the data set with primary rat microglia [6] is reported as 2%.

In the case of `CC(=O)OCC(=O)[C@@]1(O)[C@H](OC(C)=O)C[C@H]2[C@@H]3CCC4=CC(=O)C=C[C@]4(C)[C@@]3(F)[C@@H](O)C[C@@]21C` [Triamcinolone diacetate, reference compound], the “Quadrant (FIG. 5b)” value in data set [1] (setting [9]) was “Q2”; in data set [1] (Table 1, screen at 10 μM) it was “Q2”; in data set [1] (Table 2, screen at 10 μM), “Q2”; in data set [1] (Table 3, screen at 10 μM) it was “Q2”; in data set [1] (setting [12]) it was “Q2”. The inhibition at 10 µM is greater than 50% in data set [1] (setting [10]), greater than 50% in data set [1] (setting [11]), 110% in data set [4] (setting [17]) and 100% in data set [7] (setting [19]). In addition, the Activity entry in data set [1] is reported as “fib/LPS”. Further, the IC50 in “in vitro [2]” is greater than 20 µM; in data set [4] (setting [13]), 0.04 µM; in data set [4] (setting [14]), 0.04 µM; in data set [4] (Table 7, read-out: fib_IC50) it was 0.002 µM; in data set [4] (setting [15]) it was 0.04 µM; in data set [4] (setting [16]) it was 0.04 µM. Moreover, the IC50 in “in vitro [5]” was greater than 20 µM; in data set [7] (setting [18]), 0.8 µM; in data set [7] (setting [20]), 0.8 µM; in data set [7] (setting [21]), 0.8 µM; in data set [7] (Table 7, read-out: LPS_IC50), 0.002 µM; in data set [7] (setting [22]) it was 0.8 µM. Also, the “LPS % cell toxicity” value in the data set on primary rat microglia [3] turned out to be 5%. Moreover, in data set [4], the “Fibrin Selectivity” value was found to be 17. For the same compound, in data set [4], the “Fibrin Selectivity (LOG10)” value worked out at 1.23. The “Fibrin % cell toxicity” value in the data set on primary rat microglia [6] is on record as 2%.

As for `CN1CCN(CCCN2c3ccccc3Sc3ccc(C(F)(F)F)cc32)CC1` [Trifluoperazine dihydrochloride, reference compound], the “Quadrant (FIG. 5b)” value in data set [1] (setting [9]) is on record as “Q3”; in data set [1] (Table 1, screen at 10 μM) it was “Q3”; in data set [1] (setting [12]), “Q3”. For the same compound, the inhibition at 10 µM in data set [1] (setting [11]) is greater than 50%; in data set [1] (setting [23]) it was greater than 50%; in data set [4] (setting [17]), 69%; in data set [7] (setting [19]), 26%. Moreover, the IC50 was greater than 20 µM in the data set “in vitro [2]” (cFib assay); 12 µM in data set [4] (setting [13]); 12 µM in data set [4] (setting [15]); 12 µM in data set [4] (setting [16]); 12 µM in the data set “in vitro [5]”; 6 µM in data set [7] (setting [18]). Also, the IC50 in data set [7] (setting [20]) and in data set [7] (setting [22]) was 6 µM throughout. Besides, the “LPS % cell toxicity” value in the data set with primary rat microglia [3] is listed as 0%. For the same compound, the “Fibrin % cell toxicity” value in the data set with primary rat microglia [6] turned out to be 2%.

For `CC(CN(C)C)CN1c2ccccc2CCc2ccccc21` (centres unmarked) [Trimipramine maleate, reference compound], the “Quadrant (FIG. 5b)” value in data set [1] (setting [9]) is reported as “Q2”; in data set [1] (Table 1, screen at 10 μM) it was “Q2”; in data set [1] (setting [12]), “Q2”. The inhibition at 10 µM in data set [1] (setting [11]) is greater than 50%; in data set [1] (setting [23]) it was greater than 50%; in data set [4] (setting [17]), 52%; in data set [7] (setting [19]), 92%. The IC50 was greater than 20 µM in the data set “in vitro [2]” (cFib assay); 7 µM in data set [4] (setting [13]); 7 µM in data set [4] (setting [15]); 7 µM in data set [4] (setting [16]); 12 µM in “in vitro [5]”; 5 µM in data set [7] (setting [18]). Also, the IC50 in data set [7] (setting [20]) and in data set [7] (setting [22]) was 5 µM in each case. Also, the “LPS % cell toxicity” value with primary rat microglia [3] is on record as 5%. In the data set with primary rat microglia [6], the “Fibrin % cell toxicity” value is 1%.
